Data reported in US10010547B2 (CASCADIAN THERAPEUTICS, INC., priority 2014, dated 2018).
Counter-ions that a name gives are not always drawn. Like-named read-outs stand apart in the source and are kept apart here.

Key:
MIA PaCa-2 cells = test: Gemcitabine Combination Cell Assay (Cell Titer Glo); type: cell-based; conditions: for IC50: Homo sapiens; for 10xLS: approximate concentration of Chk1 inhibitor that results in a 10-fold reduction in the IC50 of gemcitabine alone; for 2xLS: approximate concentration of Chk1 inhibitor that results in a two-fold reduction in the IC50 of gemcitabine alone
Experimental: Gemcitabine Combination Cell Assay
Exponentially growing MIA PaCa-2 (ATCC CRL-1420) cells are treated with trypsin to remove cells from the plate surface. Approximately 10,000 cells/well are plated in 96 well plates in RPMI containing 10% fetal bovine serum, 1% sodium pyruvate and 1% L-GlutaMax. Cells are allowed to adhere to the plate surface overnight. Serial half-log dilutions of Chk1 inhibitor test compounds and gemcitabine are made with a final highest concentration of 3000 nM and 100 nM, respectively. Chk1 inhibitors and gemcitabine are combined so that each concentration of Chk1 inhibitor is added to each concentration of gemcitabine. Each drug is also tested as a single agent. Drugs are added to adherent cells (in duplicate) and incubated for 72 h. At 72 h the cells are treated with Promega Cell Titer Glo reagent for approximately 15 minutes. Luminescence (relative light units, RLU) is recorded using a BMG Polarstar Omega plate reader. The single agent concentration that results in a 50% reduction in total signal (IC50) is calculated using PRISM software and a four-parameter non-linear regression curve fit. For combination studies the RLUs are plotted using PRISM on an XY plot with the gemcitabine concentration on the X axis and RLU on the Y axis. The RLU for each concentration of Chk1 inhibitor is plotted as a function of gemcitabine concentration. The IC50 for gemcitabine alone and at each concentration of Chk1 is determined using a four-parameter non-linear regression curve fit. The approximate concentration of Chk1 inhibitor that results in a two and ten-fold reduction in the IC50 of gemcitabine alone is calculated as an indication of synergistic potency.
From the results obtained by following the above protocol, the IC50 values against MIAPaca-2 cells of the Chk1 inhibitor alone (Chk1 IC50), the approximate concentration of Chk1 inhibitor that results in a two-fold (2×LS) and a 10-fold (10×LS) reduction in the IC50 of gemcitabine alone of each of the compounds of Examples 1-154 are shown in Table 4.

Chk-1 kinase = Chk-1 kinase (Homo sapiens (Human), UniProt O14757); test: Chk-1 Kinase Inhibiting Activity (33P-ATP filter assay, CHKtide substrate); type: biochemical; conditions: against Chk-1 kinase; read-out: IC50
Chain of Chk-1 kinase (O14757 whole entry): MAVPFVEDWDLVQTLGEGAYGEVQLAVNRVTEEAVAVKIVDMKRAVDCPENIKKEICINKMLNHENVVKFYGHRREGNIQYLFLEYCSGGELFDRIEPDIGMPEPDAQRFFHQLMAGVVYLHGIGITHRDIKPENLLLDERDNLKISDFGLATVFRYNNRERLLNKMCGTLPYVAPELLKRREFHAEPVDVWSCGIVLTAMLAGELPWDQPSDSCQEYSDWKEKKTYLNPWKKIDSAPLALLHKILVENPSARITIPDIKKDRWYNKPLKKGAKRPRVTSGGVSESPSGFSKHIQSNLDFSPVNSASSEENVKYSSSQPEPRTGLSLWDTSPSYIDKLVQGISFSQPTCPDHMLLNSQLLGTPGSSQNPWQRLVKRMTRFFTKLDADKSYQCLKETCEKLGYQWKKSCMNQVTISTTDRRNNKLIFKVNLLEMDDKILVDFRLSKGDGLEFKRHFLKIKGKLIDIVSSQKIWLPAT
Experimental: Chk-1 Kinase Inhibiting Activity
The compounds of the invention were tested for activity against Chk-1 kinase using the materials and protocols set out below.
Base Reaction buffer: 20 mM Hepes (pH 7.5), 10 mM MgCl2, 1 mM EGTA, 0.02% Brij35, 0.02 mg/ml BSA, 0.1 mM Na3VO4, 2 mM DTT, 1% DMSO
*Required cofactors are added individually to each kinase reaction
(i) Prepare indicated substrate in freshly prepared Base Reaction Buffer
(ii) Deliver any required cofactors to the substrate solution above
(iii) Deliver indicated kinase into the substrate solution and gently mix
(iv) Deliver compounds in DMSO into the kinase reaction mixture
(v) Deliver ^33P-ATP (specific activity 0.01 μCi/μl final) into the reaction mixture to initiate the reaction.
(vi) Incubate kinase reaction for 120 minutes at room temperature
(vii) Reactions are spotted onto P81 ion exchange paper (Whatman #3698-915)
(viii) Wash filters extensively in 0.1% phosphoric acid.
(ix) Dry filters and measure counts in scintillation counter
Recombinant full length construct, N-terminal GST tagged, purified from insect cells.
No special measures were taken to activate this kinase.
Final concentration in assay=0.5 nM
Peptide sequence: [[…]]
Final concentration in assay=20 μM
No additional cofactors are added to the reaction mixture
From the results obtained by following the above protocol, the IC50 values against Chk-1 kinase of each of the compounds of Examples 1-153 were determined and these are shown in Table 3.

[1] = MIA PaCa-2, 72 h, read-out: Chk1 IC50 (nM)
[2] = Chk1 inhibitor alone, MIA PaCa-2 cells, 72 h, read-out: Chk1 IC50

Structure (SMILES)	IC50 (Chk-1 kinase)	IC50 (MIA PaCa-2 cells; [2])	IC50 (MIA PaCa-2 cells; [1])	10xLS (MIA PaCa-2 cells; MIA PaCa-2 cells, 72 h)	2xLS (MIA PaCa-2 cells; MIA PaCa-2 cells, 72 h)
COc1cc(CNC2CCOCC2)ccc1-c1cc(Nc2cnc(C#N)cn2)n[nH]1 [Example 14, 5-[[5-[2-Methoxy-4-[(tetrahydropyran-4-ylamino)methyl]phenyl]-1H-pyrazol-3-yl]amino]pyrazine-2-carbonitrile hydrochloride]	0.026 nM		894 nM	~50 nM	<3 nM
COc1cc(CNCCN2CCOCC2)ccc1-c1cc(Nc2cnccn2)n[nH]1 [Example 10, (5-{2-methoxy-4-[(2-morpholin-4-yl-ethylamino)-methyl]-phenyl}-1H-pyrazol-3-yl)-pyrazin-2-yl-amine]	11 nM	> 3000 nM		>3000 nM	1000 nM
COc1cc(C2CCN(C)CC2)c(Cl)cc1-c1cc(Nc2cnc(C#N)cn2)n[nH]1 [Example 67, 5-[[5-[5-chloro-2-methoxy-4-(1-methyl-4-piperidyl)phenyl]-1H-pyrazol-3-yl]amino]pyrazine-2-carbonitrile]	1.8 nM	1320 nM		1000 nM	100 nM
COc1cc(NCCN2CCOCC2)ccc1-c1cc(Nc2cnc(C#N)cn2)n[nH]1 [Example 16, 5-[[5-[2-methoxy-4-(2-morpholinoethylamino)phenyl]-1H-pyrazol-3-yl]amino]pyrazine-2-carbonitrile]	0.085 nM	1800 nM		100 nM	<3 nM
COc1cc(CN2CCOCC2)ccc1-c1cc(Nc2cnc(C#N)cn2)n[nH]1 [Example 102, 5-[[5-[2-methoxy-4-(morpholinomethyl)phenyl]-1H-pyrazol-3-yl]amino]pyrazine-2-carbonitrile]	0.16 nM	957 nM		300 nM	10 nM
COc1cc(CN(C)C2CCOC2)ccc1-c1cc(Nc2cnc(C#N)cn2)n[nH]1 (centres unmarked) [Example 73, 5-[[5-[2-methoxy-4-[[methyl(tetra hydrofuran-3-yl)amino]methyl]phenyl]-1H-pyrazol-3-yl]amino]pyrazine-2-carbonitrile]	0.28 nM	354 nM		300 nM	10 nM
CCN1CC[C@@H](OCc2ccc(-c3cc(Nc4cnc(C#N)cn4)n[nH]3)c(OC)c2)C1 [Example 140, 5-[[5-[4-[[(3R)-1-ethylpyrrolidin-3-yl]oxymethyl]-2-methoxy-phenyl]-1H-pyrazol-3-yl]amino]pyrazine-2-carbonitrile hydrochloride]	0.021 nM		618 nM	<300 nM	<10 nM
COc1cc(CNC2CCOC2)ccc1-c1cc(Nc2cnc(C#N)cn2)n[nH]1 (centres unmarked) [Example 72, 5-[[5-[2-methoxy-4-[(tetrahydrofuran-3-ylamino)methyl]phenyl]-1H-pyrazol-3-yl]amino]pyrazine-2-carbonitrile]	0.16 nM	173 nM		100 nM	10 nM
CCN1CCO[C@H](c2ccc(-c3cc(Nc4cnc(C#N)cn4)n[nH]3)c(OC)c2)C1 [Example 118, 5-[[5-[2-methoxy-4-[(2R)-4-ethylmorpholin-2-yl]phenyl]-1H-pyrazol-3-yl]amino]pyrazine-2-carbonitrile]	0.022 nM	1200 nM		300 nM	3 nM
COc1cc(CNCC2CCN(C(=O)C3CC3)CC2)ccc1-c1cc(Nc2cnc(C#N)cn2)n[nH]1 [Example 12, 5-[5-(4-{[(1-cyclopropane-carbonyl-piperidin-4-ylmethyl)-amino]-methyl}-2-methoxy-phenyl)-1 H-pyrazol-3-ylamino]-pyrazine-2-carbonitrile]	0.034 nM	264 nM		~50 nM	<3 nM

Further lines, with some results ahead:

IC50 (Chk-1 kinase)	IC50 (MIA PaCa-2 cells; [2])	Structure (SMILES)	IC50 (MIA PaCa-2 cells; [1])	10xLS (MIA PaCa-2 cells; MIA PaCa-2 cells, 72 h)	2xLS (MIA PaCa-2 cells; MIA PaCa-2 cells, 72 h)
0.37 nM	838 nM	COc1cc(CNc2ccccn2)ccc1-c1cc(Nc2cnc(C#N)cn2)n[nH]1 [Example 31, 5-[[5-[2-methoxy-4-[(2-pyridylamino)methyl]phenyl]-1H-pyrazol-3-yl]amino]pyrazine-2-carbonitrile]		100 nM	3 nM
1.8 nM	1780 nM	CCN1CCC(c2ccc(-c3cc(Nc4cnc(C#N)cn4)n[nH]3)c(OC)c2)C(F)(F)C1 (centres unmarked) [Example 98, 5-[[5-[4-(1-ethyl-3,3-difluoro-4-piperidyl)-2-methoxy-phenyl]-1H-pyrazol-3-yl]amino]pyrazine-2-carbonitrile]		<1000 nM	10 nM
6.3 nM	> 3000 nM	N#Cc1cnc(Nc2cc(-c3ccc(C4CCNCC4)cc3F)[nH]n2)cn1 [Example 51, 5-[[5-[2-fluoro-4-(4-piperidyl)phenyl]-1H-pyrazol-3-yl]amino]pyrazine-2-carbonitrile]		3000 nM	300 nM
0.016 nM	74 nM	COc1cc(N2CCN[C@H](C)C2)ccc1-c1cc(Nc2cnc(C#N)cn2)n[nH]1 [Example 82, 5-[[5-[2-methoxy-4-[(3R)-3-methylpiperazin-1-yl]phenyl]-1H-pyrazol-3-yl]amino]pyrazine-2-carbonitrile]		<30 nM	<3 nM
0.15 nM	177 nM	COc1cc(N2CCNCC2)cc(OC)c1-c1cc(Nc2cnc(C#N)cn2)n[nH]1 [Example 121, 5-[[5-(2,6-dimethoxy-4-piperazin-1-yl-phenyl)-1H-pyrazol-3-yl]amino]pyrazine-2-carbonitrile]		<100 nM	3 nM
0.14 nM	111 nM	COc1cc(C2(F)CN(C)C2)ccc1-c1cc(Nc2cnc(C#N)cn2)n[nH]1 [Example 66, 5-[[5-[4-(3-fluoro-1-methyl-azetidin-3-yl)-2-methoxy-phenyl]-1H-pyrazol-3-yl]amino]pyrazine-2-carbonitrile]		30 nM	<3 nM
0.54 nM	676 nM	COc1cc(C2CCNCC2)c(F)cc1-c1cc(Nc2cnc(C#N)cn2)n[nH]1 [Example 58, 5-[[5-[5-fluoro-2-methoxy-4-(4-piperidyl)phenyl]-1H-pyrazol-3-yl]amino]pyrazine-2-carbonitrile]		300 nM	30 nM
0.14 nM	164 nM	COc1cc(C2(F)CNC2)ccc1-c1cc(Nc2cnc(C#N)cn2)n[nH]1 [Example 77, 5-[[5-[4-(3-fluoroazetidin-3-yl)-2-methoxy-phenyl]-1H-pyrazol-3-yl]amino]pyrazine-2-carbonitrile]		<100 nM	<3 nM
0.23 nM	235 nM	COc1cc(C2C[C@H](C)N[C@@H](C)C2)ccc1-c1cc(Nc2cnc(C#N)cn2)n[nH]1 (stereo partly drawn) [Example 47, 5-[[5-[4-[(2S,6S)-2,6-dimethyl-4-piperidyl]-2-methoxy-phenyl]-1H-pyrazol-3-yl]amino]pyrazine-2-carbonitrile]		100 nM	3 nM
0.26 nM	784 nM	COc1cc(C2CCN(C)CC2)c(F)cc1-c1cc(Nc2cnc(C#N)cn2)n[nH]1 [Example 32, 5-[[5-[5-fluoro-2-methoxy-4-(1-methyl-4-piperidyl)phenyl]-1H-pyrazol-3-yl]amino]pyrazine-2-carbonitrile]		300 nM	30 nM
